How the values were obtained:
[1] = biological target: Collagenase 3 (Homo sapiens, UniProt P45452)
[2] = biological target: T1, Interstitial collagenase (Homo sapiens, UniProt P03956); assay: 50 percent inhibition of human Matrix metalloprotease-1 by the cleavage of fluorogenic peptide MCA-Pro-Leu-Gly-Leu-Dpa-ala-Arg-NH2
T1 sequence (P03956 whole entry): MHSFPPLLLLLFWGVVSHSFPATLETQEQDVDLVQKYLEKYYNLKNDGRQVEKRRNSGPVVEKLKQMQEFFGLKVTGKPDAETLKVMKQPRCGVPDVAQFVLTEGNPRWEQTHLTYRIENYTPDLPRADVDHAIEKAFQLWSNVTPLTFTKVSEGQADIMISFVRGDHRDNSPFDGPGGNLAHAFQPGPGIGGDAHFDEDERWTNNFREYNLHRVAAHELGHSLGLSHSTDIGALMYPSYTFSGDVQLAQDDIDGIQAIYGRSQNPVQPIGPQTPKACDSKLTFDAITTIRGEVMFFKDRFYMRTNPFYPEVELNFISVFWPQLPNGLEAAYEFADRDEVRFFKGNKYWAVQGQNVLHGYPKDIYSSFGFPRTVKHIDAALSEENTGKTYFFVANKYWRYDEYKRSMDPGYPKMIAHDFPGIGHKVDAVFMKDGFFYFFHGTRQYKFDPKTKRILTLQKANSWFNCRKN

[3] = biological target: 72 kDa type IV collagenase (Homo sapiens, UniProt P08253)
Sequence of 72 kDa type IV collagenase (P08253 whole entry): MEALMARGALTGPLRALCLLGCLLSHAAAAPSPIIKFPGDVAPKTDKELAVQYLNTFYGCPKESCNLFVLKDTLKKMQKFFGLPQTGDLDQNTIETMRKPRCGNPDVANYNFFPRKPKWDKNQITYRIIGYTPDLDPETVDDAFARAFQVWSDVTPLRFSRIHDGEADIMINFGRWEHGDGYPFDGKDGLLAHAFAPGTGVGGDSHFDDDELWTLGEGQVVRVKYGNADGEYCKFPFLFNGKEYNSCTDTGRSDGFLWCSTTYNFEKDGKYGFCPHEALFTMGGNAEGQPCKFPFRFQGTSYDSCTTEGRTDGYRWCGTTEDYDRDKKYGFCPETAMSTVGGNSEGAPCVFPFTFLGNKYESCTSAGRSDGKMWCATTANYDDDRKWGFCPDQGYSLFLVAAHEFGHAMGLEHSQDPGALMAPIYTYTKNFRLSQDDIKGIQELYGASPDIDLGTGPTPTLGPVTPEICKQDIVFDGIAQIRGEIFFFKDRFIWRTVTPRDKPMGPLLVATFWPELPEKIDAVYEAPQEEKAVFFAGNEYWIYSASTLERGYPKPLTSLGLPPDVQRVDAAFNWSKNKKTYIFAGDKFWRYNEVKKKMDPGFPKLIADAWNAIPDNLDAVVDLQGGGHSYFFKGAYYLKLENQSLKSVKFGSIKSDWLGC

SMILES | IC50 [1] | IC50 [2] | IC50 [3]
O=C(NO)C1(CS(=O)(=O)c2ccc(Oc3ccc(Cl)cc3)cc2)CCOCC1 [CTS-1027] | – | 800 nM | –
O=C(NO)c1ccccc1S(=O)(=O)N1CCC(c2ccccc2)CC1 | 520 nM | – | 70 nM
O=C(NO)c1ccccc1S(=O)(=O)N1CCC(Oc2ccc(OC(F)(F)F)cc2)CC1 | – | – | 2 nM
COc1ccc(C(=O)NC2CCN(S(=O)(=O)c3ccccc3C(=O)NO)C2)cc1 (single isomer, unassigned; (-)) | – | > 10000 nM | –
O=C(NO)c1c(F)cccc1S(=O)(=O)N1CCC(Oc2ccc(C(F)(F)F)cc2)CC1 | – | – | 3.3 nM

The next lines start with the values.

IC50 [1] | IC50 [2] | IC50 [3] | SMILES
28 nM | – | – | O=C(NO)c1ccccc1S(=O)(=O)N1CCC(Oc2ccc(C(F)(F)F)cc2)CC1
– | > 10000 nM | – | O=C(NO)c1ccccc1S(=O)(=O)N1CCC(Oc2ccc(C(F)(F)F)cc2)C1 (stereo not drawn)

Reference: ChEMBL document CHEMBL1133364, “Synthesis and activity of selective MMP inhibitors with an aryl backbone” (Bioorg Med Chem Lett, 2000)
